Assay results taken from patent US3989835A, “Method of using 6-substituted amino phenyl-2,3,5,6-tetra-hydro[2,1-b]thiazoles for controlling gastrointestinal nematodes” (American Cyanamid Company, priority 1974, dated 1976).
Where a name gives a salt, the structure may show the parent alone. Read-outs that look alike come from different tables or passages of the source.

Tests used:
helminths [1] = conditions: prior art compounds; cited from earlier work
whipworms = conditions: prior art compounds, especially in dogs; cited from earlier work
Trichuris vulpis = assay: Oral or subcutaneous activity vs. mature Trichuris vulpis in dogs (critical test); assay type: in vivo
Procedure: (§1) Dogs infected with mature adult whipworms Trichuris vulpis were treated with various single or double doses of unsubstituted or substituted tetramisole analogs by the oral or subcutaneous route (Table XI hereinafter). Whipworms passed in the feces were collected for several days, and the whipworms still present determined at necropsy. Percent efficacy was determined in these "critical" tests. […] Trichuris is a type of nematode refactory to treatment with most prior anthelmintics at well tolerated doses. Taxonomically allied nematodes, e.g., Trichinella and Capillaria are also refractory to most anthelmintics.

in vivo [2] = conditions: for Approx. LD50 /ED50: chemotherapeutic index, mouse oral, N. dubius; for LD50: mouse, in vivo, po; for Dead/Total: mice
Text: Data on the acute oral toxicity to mice of various single oral doses of the above compounds and several analogs were obtained by conventional procedures, (Table IX hereinafter).

helminths [3] = assay: Activity against helminths (general statement); conditions: in vivo
in vivo [4] = conditions: dog
Procedure: as §1

Nematospiroides dubius = assay: Anthelmintic efficacy against N. dubius in mice, single oral dose; assay type: in vivo, Nematospiroides dubius (in albino female mice); conditions: for inhibition in vivo at 10 mg/kg: single oral dose 10 mg./Kg.; for inhibition in vivo at 20 mg/kg: single oral dose 20 mg./Kg.; for inhibition in vivo at 5 mg/kg: single oral dose 5.0 mg./Kg.
Procedure: Albino female mice are each inoculated with about 20 infectious larvae of Nematospiroides dubius. This nematode is a representative of the economical important trichostrongylis worms of ruminants and other hosts, and of nematodes in general. Twenty-two days after inoculation, groups of four randomly selected mice containing adult N. dubius are given single oral doses of test compounds dissolved or suspended in 0.4 ml. of water per 20 gram mouse. At 26 or 27 days after inoculation, treated mice and in each test four randomly selected groups of untreated mice are necropsied. The number of worms in the small intestine of each mouse are determined by microscopic examination. Average worm numbers for each treated group and for the untreated controls are computed and the percent efficacy determined by the customary formula:
(Average Worms in Control - Average Worms in Treated)/(Average Worms in Control) X 100.

[5] = Approx. LD50, mouse oral, Table IX
[6] = LD50, mice, adjusted to molar equivalents of tetramisole free base
[7] = oral 5 Mg./Kg., based on total worms in all dogs
[8] = Heligmosomoides polygyrus, po, mouse oral, Table IX, read-out: Approx. ED50 vs. N. dubius
[9] = Heligmosomoides polygyrus, po, as Base, single oral dose, mice, > indicates inactive at dose shown, read-out: Approx. ED50
[10] = Heligmosomoides polygyrus, po, single oral dose 2.0 mg./Kg., molar-adjusted, read-out: Percent Nematospiroides Activity
[11] = Heligmosomoides polygyrus, po, molar-adjusted, read-out: Percent Nematospiroides Activity

Structure (SMILES) | % Efficacy SC (Trichuris vulpis; SC 5 Mg./Kg.) | Approx. LD50 /ED50 (in vivo [2]; Table IX) | LD50 (in vivo [2]; [5]) | LD50 (in vivo [2]; [6]) | Dead/Total (in vivo [2]; single oral dose 20 Mg./Kg.) | MTD (in vivo [4]; po) | MTD (in vivo [4]; sc) | % Efficacy SC (Trichuris vulpis; SC 2.5 Mg./Kg.) | % Efficacy Orally (Trichuris vulpis; [7]) | ED50 (Nematospiroides dubius; [8]) | Dead/Total (in vivo [2]; single oral dose 50 Mg./Kg.) | Dead/Total (in vivo [2]; single oral dose 100 Mg./Kg.) | ED50 (Nematospiroides dubius; [9]) | inhibition in vivo at 2 mg/kg (Nematospiroides dubius; [10]) | inhibition in vivo at 10 mg/kg (Nematospiroides dubius; [11]) | inhibition in vivo at 20 mg/kg (Nematospiroides dubius; [11]) | Dead/Total (in vivo [2]; single oral dose 200 Mg./Kg.) | inhibition in vivo at 5 mg/kg (Nematospiroides dubius; [11]) | other results
c1ccc(C2CN3CCSC3=N2)cc1 (stereo not drawn) [l H, l-6-phenyl-2,3,5,6,-tetrahydroimidazo[2,1-b]thiazole, reference compound] | 8% |  |  |  |  |  |  |  |  |  |  |  |  |  |  |  |  |  | activity against helminths in words (helminths [1]): highly effective against most helminths; activity against whipworms in words (whipworms): not sufficiently active against whipworms, especially in dogs; % Efficacy SC (Trichuris vulpis; SC 10 Mg./Kg.): 50%; % Efficacy SC (Trichuris vulpis; SC 15 Mg./Kg.): 43%; % Efficacy SC (Trichuris vulpis; SC 20 Mg./Kg.): 100%
Nc1cccc(C2CN3CCSC3=N2)c1 (stereo not drawn) [m-NH2 l, l-6-(m-Aminophenyl)-2,3,5,6-tetrahydroimidazo[2,1-b]thiazoleDihydrochloride] |  | 20 | 15 mg/kg | ~15 mg/kg | 4/5 | 10 mg/kg | 4 mg/kg | 100% | 100% | 0.75 mg/kg |  |  |  |  |  |  |  |  | Dead/Total (in vivo [2]; single oral dose 4-5 Mg./Kg.): 0/12; Dead/Total (in vivo [2]; single oral dose 10 Mg./Kg.): 2/10; Dead/Total (in vivo [2]; single oral dose 15 Mg./Kg.): 3/9; activity relative to the dl compound (helminths [3]): almost twice as active as the dl compound; % Efficacy SC (Trichuris vulpis; SC 1.25 Mg./Kg.): 72%; % Efficacy Orally (Trichuris vulpis; oral 1.25 Mg./Kg.): 94%; % Efficacy Orally (Trichuris vulpis; oral 2.5 Mg./Kg.): 100%; Percent Nematospiroides Activity (Nematospiroides dubius; single oral dose 1.25 mg./Kg., molar-adjusted): 59%; Percent Nematospiroides Activity (Nematospiroides dubius; single oral dose 2.0 mg./Kg., molar-adjusted): 88%; Percent Nematospiroides Activity (Nematospiroides dubius; single oral dose 4.0 mg./Kg., molar-adjusted): 98%
CNc1cccc(C2CN3CCSC3=N2)c1.Cl.Cl (stereo not drawn) [m-NH--CH3 dl, 2,3,5,6-Tetrahydro-6-(m-methylaminophenyl)imidazo[2,1-b]thiazole Dihydrochloride] | 94% | 14 | 100 mg/kg |  | 0/4 | > 10 mg/kg | 30 mg/kg | 29% | 100% | 7 mg/kg | 0/4 | 2/5 | 7 mg/kg | 28% | 66% | 100% |  |  | inhibition in vivo at 30 mg/kg (Nematospiroides dubius; Heligmosomoides polygyrus, po, single oral dose 30 mg./Kg., molar-adjusted, read-out: Percent Nematospiroides Activity): 100%
COC(=O)Nc1cccc(C2CN3CCSC3=N2)c1 (stereo not drawn) [m-NH-CO--OCH3 l, l-m-(2,3,5,6-tetrahydroimidazo[2,1-b]thiazol-6-yl)carbanilicacid methyl ester, hydrochloride] |  | 20 | ~150 mg/kg | ~125 mg/kg |  |  |  |  |  | 7.5 mg/kg | 0/5 | 0/5 | 7.5 mg/kg |  | 61% | 100% | 5/5 | 28% | Dead/Total (in vivo [2]; single oral dose 150 Mg./Kg.): 1/5; inhibition in vivo at 40 mg/kg (Nematospiroides dubius; Heligmosomoides polygyrus, po, single oral dose 40 mg./Kg., molar-adjusted, read-out: Percent Nematospiroides Activity): 100%
CC(C)(C)C(=O)Nc1cccc(C2CN3CCSC3=N2)c1 (stereo not drawn) [m-NH-CO-C(CH3)2 l] |  | 100 | 100 mg/kg | ~100 mg/kg |  |  |  |  |  | 1 mg/kg | 0/6 | 2/6 | 1 mg/kg | 69% | 100% |  | 6/6 | 90% | inhibition in vivo at 1.25 mg/kg (Nematospiroides dubius; Heligmosomoides polygyrus, po, single oral dose 1.25 mg./Kg., molar-adjusted, read-out: Percent Nematospiroides Activity): 60%
